# Assay results as given in patent US8742106B2 (Novartis AG, priority 2009, dated 2014).
# How the values were obtained:
# human orexin 1 receptors = human orexin 1 receptors (Homo sapiens (Human), UniProt O43613); experiment: Calcium Accumulation in Cells (FLIPR), antagonism of orexin A; assay type: cell-based; details: for Ki: antagonism of orexin A, Cheng-Prusoff corrected, read-out: FLIPR hOx1R Ki; for inhibition at 10 µM: measured at a concentration of 10 μM of compound, read-out: FLIPR hOx1R % inhibition value
# Experimental: (§1) Calcium Accumulation in Cells (FLIPR):
# Cells expressing human orexin 1 or human orexin 2 receptors, were seeded at 8,000 cells/well in 384 well black-walled clear bottom, poly-D-lysine coated plates. After 24 h, the medium was removed and cells were washed once with phosphate buffered saline and serum-deprived overnight in assay buffer (130 mM NaCl, 5.4 mM KCl, 1.8 mM CaCl2, 0.8 mM MgSO4, 0.9 mM NaH2PO4, 25 mM glucose, 20 mM HEPES, pH 7.4) containing bovine serum albumin (1% w/v).
# On the day of the experiment, the cells seeded in black plates were treated with assay buffer containing the Ca^2+ sensitive fluorescent dye Fluo4-AM (2 μM), and probenecid (0.1 mM). After 1 h plates were washed twice with, and resuspended in, assay buffer containing probenecid (0.1 mM) using a multi plate washer. The plates were placed into a FLIPR II (Fluorometric Imaging Plate Reader, Molecular Devices, Sunnyvale, Calif., USA) and baseline fluorescence (fluorescence light units, FLU) was measured (5 measurements, 2 S each; laser excitation 488 nm at 0.6-1 W, CCD camera exposure 0.4 s) before addition of buffer alone (basal) or containing test compounds (either compound of formula (I) or (I′) alone, agonist alone or agonist in the presence of various concentrations of compounds of formula (I) or (I′)). Fluorescence measurements were then continued every 1 S for 120 S followed by every 4 S for 240 S.
# (§2) The measurements were typically made in two sequences:
# (§3) In the first round, compounds of formula (I) or (I′) were tested alone, to detect possible agonist activity. Compounds of formula I or I′ were tested usually in a concentration range from 10^−9 M to 10^−5 M.
# (§4) In the second round, performed one hour later (to allow for equilibration), Orexin A was tested either in the absence (calibration curves, Orexin A agonist controls) or in the presence of compounds of formula (I) or (I′) to determine antagonism.
# human orexin 2 receptors = human orexin 2 receptors (Homo sapiens (Human), UniProt O43614); experiment: as above; assay type: cell-based; details: for inhibition at 10 µM: measured at a concentration of 10 μM of compound, read-out: FLIPR hOx2R % inhibition value; for Ki: antagonism of orexin A, Cheng-Prusoff corrected, read-out: FLIPR hOx2R Ki
# Experimental: as §1
# Cells expressing human orexin 1 or human orexin 2 receptors, were seeded at 8,000 cells/well in 384 well black-walled clear bottom, poly-D-lysine coated plates.
# On the day of the experiment, the cells seeded in black plates were treated with assay buffer containing the Ca^2+ sensitive fluorescent dye Fluo4-AM (2 μM), and probenecid (0.1 mM). After 1 h plates were washed twice with, and resuspended in, assay buffer containing probenecid (0.1 mM) using a multi plate washer. […] Fluorescence measurements were then continued every 1 S for 120 S followed by every 4 S for 240 S.
# as §2, §3, §4
# Chain of human orexin 2 receptors (O43614 whole entry): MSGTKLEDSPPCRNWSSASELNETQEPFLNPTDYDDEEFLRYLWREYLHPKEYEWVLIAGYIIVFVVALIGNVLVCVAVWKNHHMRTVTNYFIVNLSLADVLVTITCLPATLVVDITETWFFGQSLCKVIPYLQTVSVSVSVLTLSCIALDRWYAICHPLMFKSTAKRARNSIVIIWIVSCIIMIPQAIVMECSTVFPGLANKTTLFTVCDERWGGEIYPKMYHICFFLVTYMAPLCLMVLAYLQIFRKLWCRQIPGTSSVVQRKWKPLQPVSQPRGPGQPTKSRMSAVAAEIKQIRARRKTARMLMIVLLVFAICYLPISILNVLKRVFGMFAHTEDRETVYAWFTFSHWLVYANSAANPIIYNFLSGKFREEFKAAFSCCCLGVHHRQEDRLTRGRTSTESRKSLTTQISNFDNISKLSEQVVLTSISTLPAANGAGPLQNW
# Chain of human orexin 1 receptors (O43613 whole entry): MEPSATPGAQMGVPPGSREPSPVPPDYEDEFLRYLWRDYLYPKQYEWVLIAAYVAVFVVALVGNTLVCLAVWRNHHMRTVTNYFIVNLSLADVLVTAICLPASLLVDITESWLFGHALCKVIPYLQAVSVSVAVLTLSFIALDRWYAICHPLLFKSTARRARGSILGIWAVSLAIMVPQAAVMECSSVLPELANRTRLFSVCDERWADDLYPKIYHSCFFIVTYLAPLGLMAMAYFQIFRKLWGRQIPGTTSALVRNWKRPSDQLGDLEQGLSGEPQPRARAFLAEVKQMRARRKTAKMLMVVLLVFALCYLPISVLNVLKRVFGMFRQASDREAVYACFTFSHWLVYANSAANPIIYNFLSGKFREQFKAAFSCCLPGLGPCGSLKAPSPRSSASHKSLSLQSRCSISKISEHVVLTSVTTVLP
Structure (SMILES),Ki (human orexin 1 receptors) [nM],inhibition at 10 µM (human orexin 2 receptors) [%],Ki (human orexin 2 receptors) [nM],inhibition at 10 µM (human orexin 1 receptors) [%]
"CC(NC(=O)COc1cc(C(F)(F)F)c2c(-c3ccccc3)nn(C)c2n1)c1ccncc1 (centres unmarked) [Example 1.31, 2-(1-methyl-3-phenyl-4-(trifluoromethyl)-1H-pyrazolo[3,4-b]pyridin-6-yloxy)-N-(1-(pyridin-4-yl)ethyl)acetamide]",2110,40,–,–
"COc1cccc(CNC(=O)COc2cc(C(F)(F)F)c3c(-c4ccccc4)nn(C)c3n2)c1 [Example 1.33, N-(3-methoxybenzyl)-2-(1-methyl-3-phenyl-4-(trifluoromethyl)-1H-pyrazolo[3,4-b]pyridin-6-yloxy)acetamide]",1650,–,427,–
"C[C@H](NC(=O)COc1cc(C(F)(F)F)c2c(-c3cccnc3)nn(C)c2n1)c1ccccc1 [Example 1.34, (S)-2-(1-methyl-3-(pyridin-3-yl)-4-(trifluoromethyl)-1H-pyrazolo[3,4-b]pyridin-6-yloxy)-N-(1-phenylethyl)acetamide]",869,–,323,–
"CCn1cnnc1C(C)NC(=O)COc1cc(C(F)(F)F)c2c(-c3ccccc3)nn(C)c2n1 (centres unmarked) [Example 1.35, N-(1-(4-ethyl-4H-1,2,4-triazol-3-yl)ethyl)-2-(1-methyl-3-phenyl-4-(trifluoromethyl)-1H-pyrazolo[3,4-b]pyridin-6-yloxy)acetamide]",–,22,–,22
"CC(C)c1noc(C(C)NC(=O)COc2cc(C(F)(F)F)c3c(-c4ccccc4)nn(C)c3n2)n1 (centres unmarked) [Example 1.36, N-(1-(3-isopropyl-1,2,4-oxadiazol-5-yl)ethyl)-2-(1-methyl-3-phenyl-4-(trifluoromethyl)-1H-pyrazolo[3,4-b]pyridin-6-yloxy)acetamide]",3360,30,–,–
"C[C@H](NC(=O)COc1cc(C(F)(F)F)c2c(C(C)(C)C)nn(C)c2n1)c1ccccc1 [Example 1.37, (S)-2-(3-tert-butyl-1-methyl-4-(trifluoromethyl)-1H-pyrazolo[3,4-b]pyridin-6-yloxy)-N-(1-phenylethyl)acetamide]",1950,–,298,–
"Cc1nc(C(C)NC(=O)COc2cc(C(F)(F)F)c3c(-c4ccccc4)nn(C)c3n2)c(C)s1 (centres unmarked) [Example 1.40, N-(1-(2,5-dimethylthiazol-4-yl)ethyl)-2-(1-methyl-3-phenyl-4-(trifluoromethyl)-1H-pyrazolo[3,4-b]pyridin-6-yloxy)acetamide]",–,–,2900,37
"Cn1nc(-c2ccccc2)c2c(C(F)(F)F)cc(OCC(=O)NCc3ccccc3F)nc21 [Example 1.42, N-(2-fluorobenzyl)-2-(1-methyl-3-phenyl-4-(trifluoromethyl)-1H-pyrazolo[3,4-b]pyridin-6-yloxy)acetamide]",1590,–,890,–
"Cn1nc(-c2ccccc2)c2c(C(F)(F)F)cc(OCC(=O)NCc3cccc(Cl)c3)nc21 [Example 1.43, N-(3-chlorobenzyl)-2-(1-methyl-3-phenyl-4-(trifluoromethyl)-1H-pyrazolo[3,4-b]pyridin-6-yloxy)acetamide]",–,–,2060,24
"COc1ccccc1C(C)NC(=O)COc1cc(C(F)(F)F)c2c(-c3ccccc3)nn(C)c2n1 (centres unmarked) [Example 1.44, N-(1-(2-methoxyphenyl)ethyl)-2-(1-methyl-3-phenyl-4-(trifluoromethyl)-1H-pyrazolo[3,4-b]pyridin-6-yloxy)acetamide]",274,–,158,–
"C[C@H](NC(=O)COc1cc(C2CC2)c2c(-c3ccccc3)nn(C)c2n1)c1ccccc1 [Example 1.47, (S)-2-(4-cyclopropyl-1-methyl-3-phenyl-1H-pyrazolo[3,4-b]pyridin-6-yloxy)-N-(1-phenylethyl)acetamide]",441,–,561,–
"C[C@H](NC(=O)COc1cc(C(F)(F)F)c2c(C3CC3)nn(C)c2n1)c1ccccc1 [Example 1.50, (S)-2-(3-cyclopropyl-1-methyl-4-(trifluoromethyl)-1H-pyrazolo[3,4-b]pyridin-6-yloxy)-N-(1-phenylethyl)acetamide]",730,–,168,–
"C[C@H](NC(=O)COc1cc(C(F)(F)F)c2c(C3CCCCC3)nn(C)c2n1)c1ccccc1 [Example 1.51, (S)-2-(3-cyclohexyl-1-methyl-4-(trifluoromethyl)-1H-pyrazolo[3,4-b]pyridin-6-yloxy)-N-(1-phenylethyl)acetamide]",471,–,364,–
"C[C@H](NC(=O)COc1cc(C(F)(F)F)c2c(C3CCCC3)nn(C)c2n1)c1ccccc1 [Example 1.52, (S)-2-(3-cyclopentyl-1-methyl-4-(trifluoromethyl)-1H-pyrazolo[3,4-b]pyridin-6-yloxy)-N-(1-phenylethyl)acetamide]",1170,–,868,–
"Cn1nc(-c2ccccc2)c2c(C(F)(F)F)cc(OCC(=O)NC3CC3)nc21 [Example 1.53, N-cyclopropyl-2-(1-methyl-3-phenyl-4-(trifluoromethyl)-1H-pyrazolo[3,4-b]pyridin-6-yloxy)acetamide]",–,36,–,14
"Cn1nc(-c2ccccc2)c2c(C(F)(F)F)cc(OCC(=O)NC3CCC3)nc21 [Example 1.54, N-cyclobutyl-2-(1-methyl-3-phenyl-4-(trifluoromethyl)-1H-pyrazolo[3,4-b]pyridin-6-yloxy)acetamide]",–,42,–,25
"CCCNC(=O)COc1cc(C(F)(F)F)c2c(-c3ccccc3)nn(C)c2n1 [Example 1.55, 2-(1-methyl-3-phenyl-4-(trifluoromethyl)-1H-pyrazolo[3,4-b]pyridin-6-yloxy)-N-propylacetamide]",–,–,767,23
"Cn1nc(-c2ccccc2)c2c(C(F)(F)F)cc(OCC(=O)NC3CCCc4ccccc43)nc21 (centres unmarked) [Example 1.56, 2-(1-methyl-3-phenyl-4-(trifluoromethyl)-1H-pyrazolo[3,4-b]pyridin-6-yloxy)-N-(1,2,3,4-tetrahydronaphthalen-1-yl)acetamide]",378,–,165,–
"C[C@H](NC(=O)COc1cc(C(F)(F)F)c2c(-c3cccc(Cl)c3)nn(C)c2n1)c1ccccc1 [Example 1.57, (S)-2-(3-(3-chlorophenyl)-1-methyl-4-(trifluoromethyl)-1H-pyrazolo[3,4-b]pyridin-6-yloxy)-N-(1-phenylethyl)acetamide]",66,–,106,–
"COc1ccc([C@@H](C)NC(=O)COc2cc(C(F)(F)F)c3c(-c4ccccc4)nn(C)c3n2)cc1 [Example 1.59, (R)-N-(1-(4-methoxyphenyl)ethyl)-2-(1-methyl-3-phenyl-4-(trifluoromethyl)-1H-pyrazolo[3,4-b]pyridin-6-yloxy)acetamide]",2290,–,949,–
"Cc1cc(OCC(=O)NC(C)c2ccncc2)nc2c1c(-c1ccccc1)nn2C (centres unmarked) [Example 1.63, 2-(1,4-dimethyl-3-phenyl-1H-pyrazolo[3,4-b]pyridin-6-yloxy)-N-(1-(pyridin-4-yl)ethyl)acetamide]",–,34,–,27
"Cc1cc(OCC(=O)NC(C)c2cccnc2)nc2c1c(-c1ccccc1)nn2C (centres unmarked) [Example 1.64, 2-(1,4-dimethyl-3-phenyl-1H-pyrazolo[3,4-b]pyridin-6-yloxy)-N-(1-(pyridin-3-yl)ethyl)acetamide]",–,39,–,26
"Cc1cc(OCC(=O)NC(C)c2ccccn2)nc2c1c(-c1ccccc1)nn2C (centres unmarked) [Example 1.65, 2-(1,4-dimethyl-3-phenyl-1H-pyrazolo[3,4-b]pyridin-6-yloxy)-N-(1-(pyridin-2-yl)ethyl)acetamide]",–,30,–,26
"Cc1cccc(CNC(=O)COc2cc(C(F)(F)F)c3c(-c4ccccc4)nn(C)c3n2)c1 [Example 1.66, 2-(1-methyl-3-phenyl-4-(trifluoromethyl)-1H-pyrazolo[3,4-b]pyridin-6-yloxy)-N-(3-methylbenzyl)acetamide]",–,41,–,23
"CC(C)CCNC(=O)COc1cc(C(F)(F)F)c2c(-c3ccccc3)nn(C)c2n1 [Example 1.68, N-isopentyl-2-(1-methyl-3-phenyl-4-(trifluoromethyl)-1H-pyrazolo[3,4-b]pyridin-6-yloxy)acetamide]",–,16,–,< 10
